Experimental data published in PMC6291527, “A Nanostructured Lipid System to Improve the Oral Bioavailability of Ruthenium(II) Complexes for the Treatment of Infections Caused by Mycobacterium tuberculosis” (Frontiers in Microbiology, 2018).
Marks after values point to notes of the source that are not given here.

What was measured:
[1] = test system: mouse macrophages (J774A.1); assay: In vitro cytotoxic activity (resazurin) in macrophages; assay type: cell-based; conditions: complex solubilized in DMSO; J774A.1 macrophages, 24 h
Experimental: The cytotoxicity of the complexes solubilized in DMSO and loaded into the NLS was measured in mouse macrophages (J774A.1 ATCCb TIB-67) as described by [Pavan et al. (2010a)]. The cells were incubated at 37°C with 5% CO2 on plates with a surface area of 12.50 cm^2 in 10 ml RPMI (Vitrocell®, Campinas, SP, Brazil) supplemented with 10% fetal bovine serum, gentamicin sulfate (50 mg l^-1) and amphotericin B (2 mg l^-1). This technique consists of collecting the cells using a scraper, centrifuging (2000 rpm for 5 min), counting the number of cells in a Newbauer chamber, and then adjusting the concentration to 3.4 × 10^5 cells ml^-1 in RPMI. Next, 200 μl suspension was deposited into each well of a 96-well microplate and incubated at 37°C in an atmosphere of 5% CO2 for 24 h to allow the cells to attach to the plate. Dilutions of the test compounds were prepared to obtain concentrations from 500 to 1.95 μg ml^-1. […] The cytotoxicity of the compounds was determined by adding 30 μl developer of resazurin and read after a 6-h incubation. The reading was performed in a microplate Cytation 3 (Biotek®, Winooski, VT, United States) reader using excitation and emission filters at wavelengths of 530 and 590 nm, respectively. The cytotoxicity (IC50) was defined as the highest concentration of compound inhibiting the growth of at least 50% of the cells and was obtained from non-linear regression using GraphPad Prism 7.0 for Windows.

[2] = test system: M. tuberculosis H37Rv ATCC 27294; assay: Resazurin Microtiter Assay (REMA), MIC90 against M. tuberculosis H37Rv; conditions: for MIC90 DMSO: complex solubilized in DMSO, mean ± SD; for Standard MIC Pre-determined: repeats Table 2 values, mean ± SD of three assays

Compound	IC50 DMSO [1]	MIC90 DMSO [2]	Standard MIC Pre-determined [2] [µg/mL]
Cc1ccnc(-c2cc(C)ccn2)c1.F[P-](F)(F)(F)(F)F.O=C([O-])c1ccccn1.[Ru+2].c1ccc(P(CCCCP(c2ccccc2)c2ccccc2)c2ccccc2)cc1 [SCAR2, [Ru(pic)(dppb)(Me-bipy)]PF6]	6.51 ± 0.67^a μg mL^-1	1.08 ± 0.12^a μg mL^-1	1.08 ± 0.12
F[P-](F)(F)(F)(F)F.O=C([O-])c1ccccn1.[Ru+2].c1ccc(P(CCP(c2ccccc2)c2ccccc2)c2ccccc2)cc1.c1ccc(P(CCP(c2ccccc2)c2ccccc2)c2ccccc2)cc1 [SCAR5, cis-[Ru(pic)(dppe)2]PF6]	3.88 ± 0.98^a μg mL^-1	1.32 ± 0.03^a μg mL^-1	1.32 ± 0.03
[Ru(pic)(dppb)(bipy)]PF6 [SCAR1]	22.26 ± 1.85^a μg mL^-1	1.18 ± 0.08^a μg mL^-1	1.18 ± 0.08
[Ru(pic)(dppb)(phen)]PF6 [SCAR4]	7.57 ± 0.13^a μg mL^-1	1.34 ± 0.08^a μg mL^-1	1.34 ± 0.08
[Ru(pic)(dppe)(phen)]PF6 [SCAR7]	14.36 ± 1.57^a μg mL^-1	0.98 ± 0.05^a μg mL^-1	0.98 ± 0.05
